Data: paper PMC8761492 (Life Science Alliance, 2022)
Starred links: 1 amine or outer side, 2 acyl side, 3 side chain; linkers in the order of their positions; H or OH if unused. Positions of bridges follow the written chain, without caps; N, C: chain ends. Non-standard residues stand in square brackets, D forms with d. Residues, ends and D or L forms follow the SMILES beside them. *: point of attachment. X1 = CC[C@H](C)[C@@H](N[*:1])[C@@H](O)CC(=O)O[C@H](C(=O)[C@H](C)C(=O)[*:2])C(C)C; NMeY = CN[C@@H](Cc1ccc(O)cc1)C(=O)O; dNMeL = CN[C@H](CC(C)C)C(=O)O; Pyruvoyl = CC(=O)C(=O)*

What was measured:
SARS-CoV = type: cell-based; conditions: Vero E6 cells; 50 nM; 48 hpi
[1] = Drug-induced cytotoxicity in Vero E6 cells in the absence of virus; type: cell-based; conditions: monkey, Vero E6 cells (ATCC CRL-1586), uninfected, Vero E6 cells without virus
[2] = Tissue distribution of total radioactivity after single IV bolus of [14C]plitidepsin; type: in vivo, Sprague–Dawley rats; conditions: rat, 0.2 mg/kg i.v. bolus
Procedure: An in vivo distribution study was carried out in rats. PM140064 (14C1-Plitidepsin) was supplied by PharmaMar at a radiochemical purity of 95% or greater, with no single impurity 3% or greater. The study was conducted at Aptuit Srl ([54]).
24 male and 24 female Sprague–Dawley rats each received a single IV bolus administration of [14C] Plitidepsin at a target dose of 0.2 mg/kg. After administration, three animals per time-point (0.25, 1, 2, 4, 8, 24, 48, and 72 h post-dose) were exsanguinated from the abdominal aorta and blood retained. Actual times of bleeding were recorded. In addition to blood, the following tissues were collected: brain, eyeballs, heart, liver, lung, skeletal muscle (quadriceps), fat, kidneys, stomach, skin, small intestine, spleen, thyroid, lymph nodes, and testes or ovaries. At the end of the collection period animals were euthanized by CO2 asphyxiation and the carcasses were discarded. Additional animals were bled to obtain control blood/plasma and tissues.

[3] = APLICOV-PC: safety, adverse events and laboratory abnormalities; type: in vivo, human
Procedure: The plitidepsin clinical proof-of-concept study (APLICOV-PC, APL-D-002-20; EudraCT #2020-001993-31; NCT04382066) was a multicenter, randomized, parallel, open-label, proof-of-concept clinical trial, exploring three dose levels of plitidepsin (1.5, 2.0, and 2.5 mg/day, flat doses) for 3 consecutive days, as a 90-min i.v. infusion, in adult patients with COVID-19 who required hospitalization. The study was conducted in 10 hospital centers in Spain between 12 May 2020 and 26 November 2020. Presented data reflect all analyses completed by the cut-off date of 10 December 2020. The research was performed in accordance with good clinical practice guidelines and adhered to the tenets of the Declaration of Helsinki. The study protocol is available in Supplemental Data 1. Supplemental Data 2 summarizes the protocol amendments as well as post hoc analyses that were performed.
Adult (aged ≥18 yr) hospitalized patients with a positive SARS-CoV-2 infection confirmed by real-time RT-PCR testing of a nasopharyngeal exudate or the lower respiratory tract were eligible for inclusion in this study. Despite the eligibility of patients with samples from the lower respiratory tract, all patients reported here had only nasopharyngeal swab samples. Included patients must have had the onset of SARS-CoV-2 infection symptoms no more than 10 d before initiating the study. […] Women and men with partners of childbearing potential agreed to take effective contraception while on study and for 6 mo after the last dose of plitidepsin. All included patients provided written informed consent before the initiation of the study.
Key exclusion criteria included participation in another COVID-19–related clinical trial; receiving antivirals, chloroquine or derivatives, IL-6 receptor inhibitors, or immunomodulatory drugs for treatment of COVID-19; or requiring mechanical ventilation support at enrollment. Patients were also excluded for evidence of multi-organ failure, clinically relevant heart disease, clinically relevant arrhythmia or history of QTc interval prolongation, or neuropathy ≥ grade 2. Full exclusion criteria can be found in Supplemental Data 1.
Randomization was done through registration in the study’s electronic case report form. The system assigned a unique randomization number for each patient. Patients were enrolled sequentially and allocated by block randomization into the three dose groups (1.5, 2.0, and 2.5 mg plitidepsin) up to an initial sample size of nine patients per group. To ensure safety, the first three patients in the 2.0 mg group could not be enrolled until the first three patients in the 1.5 mg cohort had successfully completed Day 15 assessments (12 d after completing plitidepsin dosing); similarly, the first three patients in the 2.5 mg cohort could be not enrolled until the first three patients in the 2.0 mg cohort had successfully completed Day 15 assessments (12 d after completing plitidepsin dosing). Finally, three patients had to be treated in the 2.5 mg cohort to complete the accrual of nine patients per cohort. When multiple dose levels were open for enrollment, patients were randomized 1:1 or 1:1:1 as appropriate (Fig 4). After an interim safety analysis, a protocol amendment was approved to subsequently expand the accrual up to 45 patients (six additional patients per dose group).
Enrolled patients received plitidepsin administered as an i.v. infusion over 90 min on days 1, 2, and 3 at dose levels of 1.5, 2.0, and 2.5 mg. A single batch (Lot 16D19) was administered to all patients. All patients also received, 20–30 min before the infusion of plitidepsin (i.e., on days 1–3), a premedication regimen consisting in: diphenhydramine 25 mg i.v., ranitidine 50 mg i.v., and dexamethasone 8 mg orally. […]

SARS-CoV-2 = test system: SARS-CoV-2; design: method as in PMID 33495306; conditions: in vivo; cited from earlier work
CYP3A4 = test system: CYP3A4; design: method as in study protocol; conditions: in vitro studies; ref study protocol; cited from earlier work
[4] = Post-amendment (n = 36), Grade 1
[5] = Post-amendment (n = 36), Grade 2
[6] = after the premedication amendment
[7] = before the premedication amendment

In the case of CC[C@H](C)[C@H]1NC(=O)[C@@H](NC(=O)[C@@H](CC(C)C)N(C)C(=O)[C@@H]2CCCN2C(=O)C(C)=O)[C@@H](C)OC(=O)[C@H](Cc2ccc(OC)cc2)N(C)C(=O)[C@@H]2CCCN2C(=O)[C@H](CC(C)C)NC(=O)[C@@H](C)C(=O)[C@H](C(C)C)OC(=O)C[C@@H]1O [Plitidepsin] (Pyruvoyl-P[dNMeL]T[X1]LP[NMeY](Me); ester 3-C), the “decrease in SARS-CoV genomic RNA accumulation” value (SARS-CoV) was 10^4 fold, the CC50 at 3 d [1] was 2900 nM and the “lung-blood (LBR) AUC ratio” value [2] was “around 8 fold”. For the same compound, the “prevalence of grade 3–4 AEs” value ([3]; 1.5 mg cohort) was 33.3%, the “prevalence of grade 3–4 AEs” value ([3]; 2.0 mg cohort) was 20.0% and the “prevalence of grade 3–4 AEs” value ([3]; 2.5 mg cohort) was 40.0%. The “patients with Grade 1 increase in CPK” value ([3]; 3 of 37 with normal baseline values) was 8.1%, the “patients whose platelet counts normalized” value ([3]; 5 of 12 with Grade 1 thrombocytopenia at entry) was 41.7% and the patients with hyperglycemia ([3]; 8 of 45, none considered related to plitidepsin) was 18%. For the same compound, the “patients with elevation of AST” value ([3]; 13 of 44, regardless of causality) was 30%, the “patients with elevation of ALT” value ([3]; 29 of 44, regardless of causality) was 66% and the “hypersensitivity reactions after changes to premedication” value ([3]; 36 patients, 108 infusions) was “No new hypersensitivity reactions”. The “serious adverse event considered related to the study drug” value ([3]; Grade 3 hypersensitivity reaction, one event) was 2.2 % subjects, the Abdominal pain [3, 4] was 2 (5.6%) N (%) and the Anorexia [3, 4] was 1 (2.8%) N (%). For the same compound, the Asthenia [3, 4] was 1 (2.8%) N (%), the Chest discomfort [3, 4] was 1 (2.8%) N (%) and the Diarrhea [3, 4] was 1 (2.8%) N (%). The Dizziness [3, 4] was 2 (5.6%) N (%), the Dysgeusia [3, 4] was 2 (5.6%) N (%) and the Dyspepsia [3, 4] was 2 (5.6%) N (%). For the same compound, the Dysthermia [3, 4] was 1 (2.8%) N (%), the Nausea [3, 4] was 11 (30.6%) N (%) and the Temperature regulation disorder [3, 4] was 1 (2.8%) N (%). For the same compound, the Vomiting [3, 4] was 3 (8.3%) N (%), the Amylase increased [3, 5] was 1 (2.8%) N (%) and the Asthenia [3, 5] was 1 (2.8%) N (%). The Decreased appetite [3, 5] was 1 (2.8%) N (%), the Diarrhea [3, 5] was 1 (2.8%) N (%) and the Lipase increased [3, 5] was 1 (2.8%) N (%). The Nausea [3, 5] was 3 (8.3%) N (%), the Vomiting [3, 5] was 2 (5.6%) N (%) and the Diarrhea ([3]; Post-amendment (n = 36), Grade 3) was 1 (2.8%) N (%). For the same compound, the Nausea ([3]; Pre-amendment (n = 9), Grade 1) was 3 (33.3%) N (%), the Vomiting ([3]; Pre-amendment (n = 9), Grade 1) was 2 (22.2%) N (%) and the Nausea ([3]; Pre-amendment (n = 9), Grade 2) was 2 (22.2%) N (%). The Anaphylactic reaction ([3]; Pre-amendment (n = 9), Grade 3) was 1 (11.1%) N (%), the “proportion of patients with nausea” value [3, 6] was 38.9% and the “proportion of patients with vomiting” value [3, 6] was 13.9%. For the same compound, the “Grade 4 AEs” value ([3]; all doses) was “No Grade 4 AEs were reported”, the hemotoxicity ([3]; all doses) was “did not show signs of clinically relevant hemotoxicity” and the “patients with treatment related adverse events” value ([3]; all doses, 25 patients) was 55.5%. For the same compound, the “patients with one or more adverse events” value ([3]; all doses, 44 of 45) was 97.8%, the treatment-related abdominal pain ([3]; all doses, 45 treated patients) was 4.4% and the treatment-related diarrhea ([3]; all doses, 45 treated patients) was 6.7%. It also gave a treatment-related dizziness ([3]; all doses, 45 treated patients) of 4.4%, a treatment-related dysgeusia ([3]; all doses, 45 treated patients) of 4.4% and a treatment-related nausea ([3]; all doses, 45 treated patients) of 42.2%. For the same compound, the treatment-related vomiting ([3]; all doses, 45 treated patients) was 15.6%, the “patients with at least one Grade ≥ 3 AE regardless of causality” value ([3]; all doses, NCI-CTCAE v5) was 31% and the “number of Grade 3 AEs attributed to plitidepsin” value ([3]; anaphylactic reaction at 1.5 mg/day and diarrhea at 2.5 mg/day) was “Two”. The “proportion of patients with nausea” value [3, 7] was 55.6%, the “proportion of patients with vomiting” value [3, 7] was 22.2% and the “patients whose CPK values decreased on study” value ([3]; four of five with Grade 1–2 elevation at entry) was 80%. The “patients who died (COVID-19-related)” value ([3]; three of 45 treated patients, days 22, 30 and 57) was 6.7%, the “viral load in lungs” value (SARS-CoV-2) was “significant reduction in the viral load in lungs” and the “major enzyme involved in plitidepsin metabolism” value (CYP3A4) was “CYP3A4”.
